T1: PlUacP (P. larvae uric acid permease-like protein) (Paenibacillus larvae, UniProt V9VZQ8)
T1 construct: gene pbuX
T1 sequence (V9VZQ8 1-434): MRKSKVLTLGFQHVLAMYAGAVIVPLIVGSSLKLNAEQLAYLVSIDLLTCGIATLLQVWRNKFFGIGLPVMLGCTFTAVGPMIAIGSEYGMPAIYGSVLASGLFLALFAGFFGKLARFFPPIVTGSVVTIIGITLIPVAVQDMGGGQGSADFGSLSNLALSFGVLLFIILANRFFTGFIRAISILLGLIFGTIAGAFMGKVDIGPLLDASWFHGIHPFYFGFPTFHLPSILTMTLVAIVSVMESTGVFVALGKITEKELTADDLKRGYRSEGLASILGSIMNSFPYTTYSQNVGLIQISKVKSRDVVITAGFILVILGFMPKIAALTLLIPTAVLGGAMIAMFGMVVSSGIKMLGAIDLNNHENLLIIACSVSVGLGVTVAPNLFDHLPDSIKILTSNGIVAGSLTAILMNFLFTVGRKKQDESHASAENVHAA

B1: PlUacP (P. larvae uric acid permease-like protein) (Paenibacillus larvae subsp. larvae DSM 25430) (protein)
chain: T1 sequence (V9VZQ8 1-434)

Each molecule was assayed against T1, PlUacP (P. larvae uric acid permease-like protein) (assay: competition with [3H]-adenine uptake in yeast). Settings: competitive; 1 μM [2,8-3H]-adenine, 1 mM unlabelled competitor, S. cerevisiae RG191, 5 min.
Type: cell-based
With `O=c1[nH]cnc2nc[nH]c12` [hypoxanthine] the “% adenine uptake at 1 mM competitor” value was “guanine, cytosine, hypoxanthine, xanthine, uric acid, and uracil all compete with adenine”.
With `O=c1[nH]c(=O)c2[nH]cnc2[nH]1` [xanthine] the “% adenine uptake at 1 mM competitor” value was “guanine, cytosine, hypoxanthine, xanthine, uric acid, and uracil all compete with adenine”.
For `O=c1[nH]c(=O)c2[nH]c(=O)[nH]c2[nH]1` [uric acid], the “% adenine uptake at 1 mM competitor” value was “guanine, cytosine, hypoxanthine, xanthine, uric acid, and uracil all compete with adenine”.
`Nc1nc2[nH]cnc2c(=O)[nH]1` [guanine] was tested, and the “% adenine uptake at 1 mM competitor” value was “guanine, cytosine, hypoxanthine, xanthine, uric acid, and uracil all compete with adenine”.
For `Nc1cc[nH]c(=O)n1` [cytosine], the “% adenine uptake at 1 mM competitor” value was “guanine, cytosine, hypoxanthine, xanthine, uric acid, and uracil all compete with adenine”.

Each molecule was assayed on Nc1ncnc2nc[nH]c12 (assay: cells, lysate or membranes). Settings: labelled compound [2,8-3H]-adenine 0.1-30 μM, S. cerevisiae RG191, 10 min, 100 mM citrate pH 3.5, 1% glucose, Lineweaver-Burk.
For B1, the Km was 7.04 ± 0.18 µM.

Source: publication PMC6070649, “The solute transport and binding profile of a novel nucleobase cation symporter 2 from the honeybee pathogen Paenibacillus larvae” (FEBS Open Bio, 2018)
